Laboratory results from patent publication US4308249A, “Radiopharmaceutical complexes of N-(tri-substituted alkyl)-iminodiacetic acids” (priority 1979, dated 1981).

Key:
[1] = Disposition of radioactivity in rabbit after i.v. chelate, Anger camera scintigraphy (Table 1); format: in vivo, New Zealand rabbit; set-up: key to Relative Distribution of Chelate: Vascular / Relative Distribution of Chelate: Liver / Relative Distribution of Chelate: Gallbladder / Relative Distribution of Chelate: Intestine: -: no statistically significant measured radioactivity; ±: relative amounts of measured radioactivity; +: relative amounts of measured radioactivity; ++: relative amounts of measured radioactivity; +++: the maximum measured radioactivity
Experimental: (§1) A volume of a solution of the chelate of technetium-99 m and N-(3-cyano-3,3-diphenylpropyl)-iminodiacetic acid prepared as in Examples 1 and 2 in the range of 0.1 to 1.0 milliliter and having a radioactivity of 1.2 millicuries and containing 0.5 to 5 milligrams of the chelate was administered intravenously to an anesthetized New Zealand rabbit weighing about 3 kilograms using a 1 milliliter tuberculin syringe connected to a #23 gauge indwelling cannula inserted into a marginal ear vein. The rabbit was positioned in a full ventral position for four hours during which time the disposition of the radioactivity in the rabbit in this position was monitored using a computer-augmented Anger camera.
(§2) At various times after administration of a solution of a chelate of this invention which are indicated in Tables 1-4, scintiscan photographs and video tape recordings were taken of the rabbit, female beagle and monkey using the Anger camera. This instrument was a Pho-Gamma LFOV Scintillation Camera System, Model 6413, fitted with a Model 3137 Vari-Back Camera, a Model 3122 Data-Store/Playback System and a Model 27851 Analog-Digital/Digital-Analog Converter (all Searle Radiographics, Inc.). This entire system was interfaced with a Xerox 530 computer (Xerox Corp., Minneapolis, Minn.) which was programmed to record net counts per unit of time and percents of total counts in individual organs and to plot organ radioactivity versus time and to separate the radioactivity of the gallbladder from the radioactivity of the liver. The camera was operated with a 140 keV high resolution Type II converging collimator using a 20 percent technetium-99 m window. Generally 400,000 counts were accumulated on each scintiscan using both video tape and self-developing film, with the animal in the full ventral position. The photographs represented a visualization of the anatomic relationships in the hepatobiliary system.
(§3) The video tape was processed by computer for quantification of the distribution of the technetium-99 m chelate radioactivity in the organs of the animals. Tables 1-4 contain semi-quantitative representations of the distribution of radioactivity in the organs of the test animals calculated from the scintiscans. In Tables 1-4, (-), (±), (+), (++) and (+++) indicate relative amounts of measured radioactivity ranging from (-) for no statistically significant measured radioactivity to (+++) for the maximum measured radioactivity.

[2] = Disposition of radioactivity in female beagle dog after i.v. chelate, Anger camera scintigraphy (Tables 2 and 3, FIG. 1); format: in vivo; set-up: key to Relative Distribution of Chelate: Vascular / Relative Distribution of Chelate: Liver / Relative Distribution of Chelate: Gallbladder: -: no statistically significant measured radioactivity; ±: relative amounts of measured radioactivity; +: relative amounts of measured radioactivity; ++: relative amounts of measured radioactivity; +++: the maximum measured radioactivity; details: for Relative Distribution of Chelate: Gallbladder / Relative Distribution of Chelate: Liver / Relative Distribution of Chelate: Vascular: i.v.
Experimental: (§4) This procedure used with the rabbit was repeated with additional anesthetized animals; a female beagle dog weighing 9.25 kilograms, and a female rhesus monkey weighing 7.9 kilograms. Again 0.1 to 1.0 milliliter of the solution containing 0.5 to 5 milligrams of the same chelate and prepared as in Examples 1 and 2 was administered in each case. One difference was that unlike the case of the rabbit, the chelate solution was injected intravenously in the saphenous vein of the dog or monkey. In separate tests with the female beagle, (1) a solution having 1.13 mCi of the chelate and (2) a solution having a 3.10 mCi of the chelate were administered, and the disposition of radioactivity in the dog was monitored for one hour and 3 hours, respectively. In addition, FIG. 1 represents results of the test involving administration of 3.10 mCi of radioactive chelate to the female beagle dog.
as §2, §3
The disappearance of the radioactive chelate from the liver and its appearance in the gallbladder of the female beagle as well as the presence of the radioactive chelate in the total hepatobiliary system of the female beagle was calculated from video tape measurements by the computer and are plotted as percentages of total radioactivity administered in the form of the radioactive chelate versus time after administration in FIG. 1. At about 120 minutes after administration, about 75 percent of the total radioactivity administered was concentrated in the gallbladder, and in excess of 90 percent of the total dose of the radioactive chelate was in the hepatobiliary system. Approximately 50 percent of the radioactive chelate in the total hepatobiliary system had passed from the liver into the gallbladder within about 45 minutes after administration.

[3] = Disposition of radioactivity in female rhesus monkey after i.v. chelate, Anger camera scintigraphy (Table 4); format: in vivo; set-up: key to Relative Distribution of Chelate: Vascular / Relative Distribution of Chelate: Liver / Relative Distribution of Chelate: Gallbladder / Relative Distribution of Chelate: Intestine: -: no statistically significant measured radioactivity; ±: relative amounts of measured radioactivity; +: relative amounts of measured radioactivity; ++: relative amounts of measured radioactivity; +++: the maximum measured radioactivity
Experimental: as §4
(§5) In the test using the female rhesus monkey, 0.1 to 1.0 milliliter of a solution of the chelate of technetium-99 m and N-(3-cyano-3,3-diphenylpropyl)-iminodiacetic acid prepared as in Examples 1 and 2 and having a radioactivity of 1.23 mCi and containing 0.5 to 5 milligrams of the same chelate was administered and the disposition of the radioactive material in the monkey was monitored for one hour.
as §2, §3

[4] = Plasma clearance of radioactivity in female beagle, gamma spectrometer (FIG. 2); format: in vivo, female beagle dog
Experimental: In addition, periodically during the time of monitoring the distribution of radioactivity in the female beagle, blood samples were removed from the jugular vein of the animal and collected in vacuum tubes containing the disodium salt of ethylendiaminetetraacetic acid and the radioactivity of one milliliter samples of plasma was measured in a gamma spectrometer.
(§6) The gamma spectrometer employed was a Model 1185 Gamma Scintillation Spectrometer (Searle Analytic Inc., Des Plaines, Ill.). One milliliter samples of plasma or whole blood were analyzed for technetium-99 m, and samples were counted for 1 minute. FIGS. 2 and 3 show the radioactivity present in the plasma or whole blood, respectively, versus the time in hours after administration of the chelate to the animals. As determined by the computer, curves A and B were the best fitting curves passing through the plots of experimentally measured radioactivities. […] This illustrates that, after being distributed throughout the body the chelate of this invention is cleared relatively quickly from the […].

[5] = Whole blood clearance of radioactivity in male mongrel dog, gamma spectrometer (FIG. 3); format: in vivo
Experimental: The procedures for injecting and taking and analyzing blood samples from the female beagle were repeated with a male mongrel dog weighing 14.1 kilograms, and the results are presented in FIG. 3. In this case, a sample of 0.1 to 1.0 milliliter of a solution of the chelate of technetium-99 m and N-(3-cyano-3,3-diphenylpropyl)-iminodiacacetic acid prepared as in Examples 1 and 2 and having a radioactivity of 3.08 mCi and containing 0.5 to 5 milligrams of the chelate was administered. In this case, the radioactivity of one milliliter samples of whole blood was measured.
as §6

[6] = Urinary excretion of radioactivity in male mongrel dog; format: in vivo; details: through 2 hours after administration
[7] = Organ radioactivity and imaging in test animals (all species) after i.v. chelate; format: in vivo, rabbit, dog, monkey
Experimental: as §1, §4, §5, §2

[8] = i.v., 1.2 mCi, minutes after administration: 0.5, 3, 10, 20, 30, 60, 120, 180, 240
[9] = within 120 minutes after administration
[10] = female beagle, about 120 minutes after administration
[11] = female beagle, 1.13 mCi (Table 2), minutes after administration: 1, 10, 20, 30, 40, 50, 60
[12] = female beagle, 3.10 mCi (Table 3), minutes after administration: b87 10, b88 25, b89 35, b90 65, b91 102, b92 160
[13] = i.v., 1.23 mCi, minutes after administration: 1, 10, 20, 30, 40, 50, 60
[14] = test animals, first 3 hours after administration

chelate of technetium-99 m and N-(3-cyano-3,3-diphenylpropyl)-iminodiacetic acid
route of clearance from the vascular system [1]: solely by the liver and biliary excretion | time to appearance of chelate in the gallbladder [1]: ≤ 3 min | Relative Distribution of Chelate: Gallbladder [1, 8]: - and + and ++ | Relative Distribution of Chelate: Intestine [1, 8]: - and + and ++ and +++ | Relative Distribution of Chelate: Liver [1, 8]: +++ and ++ and + and ± and - | Relative Distribution of Chelate: Vascular [1, 8]: ++ and - | radioactivity of heart, aorta, kidneys and liver ([1]; within 0.5 minutes after administration): strongly radioactive | amount in the gallbladder [1, 9]: a relatively small amount | amount of chelate in the intestine [1, 9]: the bulk of the chelate | radioactivity in the hepatic parenchyma [1, 9]: no measurable radioactivity | administered chelate appeared in the liver ([2]; dog, within 15 minutes after administration): more than 70% | appearance of the chelate in the gallbladder compared with rabbit ([2]; female beagle): slower than in the case of the rabbit | excretion of the chelate from the gallbladder into the intestine compared with rabbit or monkey ([2]; female beagle): slower in the female beagle than either in the rabbit or monkey | route of clearance from the vascular system ([2]; female beagle): exclusively by the liver and biliary excretion | total dose of the radioactive chelate in the hepatobiliary system [2, 10]: > 90% | total radioactivity administered concentrated in the gallbladder [2, 10]: about 75% | Relative Distribution of Chelate: Gallbladder [2, 11]: - and + and ++ and +++ | Relative Distribution of Chelate: Liver [2, 11]: ++ and +++ and + | Relative Distribution of Chelate: Vascular [2, 11]: ++ and - | Relative Distribution of Chelate: Gallbladder [2, 12]: - and + and ++ and +++ | Relative Distribution of Chelate: Liver [2, 12]: +++ and ++ and + and ± and - | Relative Distribution of Chelate: Vascular [2, 12]: + and - | radioactive chelate in the total hepatobiliary system passed from the liver into the gallbladder ([2]; female beagle, within about 45 minutes after administration): Approximately 50% | administered radioactivity accumulated in the hepatobiliary system ([2]; female dog, during the first 30 minutes): more than 85% | appearance of the chelate in the gallbladder compared with rabbit [3]: slower than in the case of the rabbit | route of clearance from the vascular system [3]: exclusively by the liver and biliary excretion | Relative Distribution of Chelate: Gallbladder [3, 13]: - and + | Relative Distribution of Chelate: Intestine [3, 13]: - and + and ++ and +++ | Relative Distribution of Chelate: Liver [3, 13]: +++ and ++ and + | Relative Distribution of Chelate: Vascular [3, 13]: + and - | clearance kinetics [4]: bi-exponential decay | half time of distributive phase of clearance [4]: 0.1 h | half time of elimination phase of clearance [4]: 1.5 h | clearance kinetics [5]: bi-exponential decay | half time of distributive phase of clearance ([5]; 3.08 mCi): 0.13 h | half time of elimination phase of clearance ([5]; 3.08 mCi): 3.5 h | total radioactivity administered found in the urine [6]: less than 0.5% | distribution throughout the cardiovascular system ([7]; after intravenous administration): rapidly distributed throughout the cardiovascular system | imaging of liver and gallbladder ([7]; all species, first 3 hours after administration): in all species the conformation of these organs was easily seen and distinguished | urinary excretion ([7]; in vivo): virtually no urinary excretion | ratio of measured radioactivity in the gallbladder to measured background radioactivity [7, 14]: 150-200 to 1 | ratio of measured radioactivity of the liver to measured background radiation [7, 14]: 10-20 to 1
